Laboratory results as given in US7494988B2, “Inhibitors of serine proteases, particularly hepatitis C virus NS3 protease” (Vertex Pharmaceuticals Incorporated, priority 2000, dated 2009).

Molecular target: HCV NS3 serine protease (Hepatitis C virus genotype 1a, UniProt P27958)
Experiment: Inhibition of HCV NS3 serine protease, spectrophotometric assay (5A-pNA cleavage)
Type: biochemical
Conditions: EDVVAbuC-p-nitroanilide (5A-pNA) substrate, 30° C., pNA release at 405 nm
Description: Insofar as compounds of formula (I) are able to inhibit NS3 serine protease, they are of evident clinical utility for the treatment of viral diseases, including HCV. The compounds of this invention are tested for their ability to inhibit HCV in the following spectrophotometric assay.
The spectrophotometric assays were run in a 96-well microtiter plate at 30° C., using a SpectraMax 250 reader (Molecular Devices, Sunnyvale, Calif.) with kinetic capability. Cleavage of EDVVAbuC-p-nitroanilide (5A-pNA) substrate was performed with or without NS4A in the same buffer used for HPLC assays at 30° C., and pNA release was monitored at 405 nm. […]
Kinetic constants for the rapid equilibrium ordered bisubstrate reaction were determined from rate vs. [4A], [EDVV AbuC-pNA] data by non-linear least squares fitting to equation 1 [J. F. Morrison, Biochim. […] Kii and Kis values for peptidyl inhibitors were determined from rate vs. [inhibitor], [substrate] data and fitting to the equation for mixed inhibition: rate=Vmax[S]/{Km(1+[I]/Kis)+[S](1+[I]/Kii)} The commercial program KinetAsyst (StateCollege, Pa.) was used for both procedures. Ki values were calculated from rate vs. [inhibitor] plots by a nonlinear least squares fit of the data to the equation of Morrison for tight binding competitive inhibition [J. F. Morrison, Biochim. […]

Chain of HCV NS3 serine protease (P27958 1027-1657): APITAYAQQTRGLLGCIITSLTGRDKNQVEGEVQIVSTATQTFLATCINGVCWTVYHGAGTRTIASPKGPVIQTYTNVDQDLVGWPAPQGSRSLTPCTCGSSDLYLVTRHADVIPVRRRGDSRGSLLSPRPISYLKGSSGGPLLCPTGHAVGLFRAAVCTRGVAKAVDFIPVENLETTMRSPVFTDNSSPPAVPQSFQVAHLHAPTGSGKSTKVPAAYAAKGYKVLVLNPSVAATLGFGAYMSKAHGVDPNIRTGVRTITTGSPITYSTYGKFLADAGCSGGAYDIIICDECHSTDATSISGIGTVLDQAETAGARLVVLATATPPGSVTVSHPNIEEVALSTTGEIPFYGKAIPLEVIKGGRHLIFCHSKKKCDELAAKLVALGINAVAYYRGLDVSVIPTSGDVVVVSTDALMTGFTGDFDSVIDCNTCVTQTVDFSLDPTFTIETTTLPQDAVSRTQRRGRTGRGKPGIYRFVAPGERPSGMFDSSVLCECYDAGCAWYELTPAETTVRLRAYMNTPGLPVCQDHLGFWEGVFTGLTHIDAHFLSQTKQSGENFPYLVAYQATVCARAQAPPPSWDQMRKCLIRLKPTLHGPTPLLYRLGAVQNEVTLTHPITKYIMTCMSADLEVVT

Structure (SMILES) | Ki [µM]
CCC[C@H](NC(=O)C1C[C@@H](OC(=O)N2CCc3ccccc3C2)CN1C(=O)[C@@H](NC(=O)[C@@H](NC(=O)c1cnccn1)C(C)C)C(C)C)C(=O)C(=O)N1CCC1 (some centres unmarked) [Compound 7] | < 1
CCC[C@H](NC(=O)C1C[C@@H](OC(=O)N2CCc3ccccc3C2)CN1C(=O)[C@@H](NC(=O)[C@@H](NC(=O)c1cnccn1)C(C)C)C(C)C)C(=O)C(=O)N1CC(Oc2ccccc2)C1 (some centres unmarked) [Compound 9] | < 1
